{
  "source": "patent US10259799B2",
  "about": "“Hydroxyl pyranone compound, method for producing same, and cosmetics composition comprising compound” (AMOREPACIFIC CORPORATION, priority 2015, dated 2019)",
  "system": "human adipose tissue derived mesenchymal stem cells (hAT-MSCs)",
  "test": "Adipocyte differentiation promoting effect: adiponectin in culture medium by ELISA",
  "type": "cell-based",
  "details": "for expression level of adiponectin (in words): hAT-MSCs with IDX, 14th day, comment on Table 1; for Adiponectin (pg/ml, Avg ± S.D.): medium collected on 14th day of differentiation",
  "protocol": "In order to examine the adipocyte differentiation promoting effect of the compounds prepared in the Example, the following test was carried out.\nAdiponectin is a typical protein hormone secreted from adipocytes. It has been reported that as adipocytes are differentiated, the expression of adiponectin is increased. Therefore, the adipocyte differentiation promoting effect was confirmed by measuring the amount of adiponectin expressed in the cell culture medium when treated with the novel compound of the present invention, which is an indicator of adipocyte differentiation promoting.\nThe adipocyte differentiation was performed by culturing human adipose tissue derived mesenchymal stem cells (hAT-MSCs) from Lonza Inc. (Walkersville, Md., USA) according to Lonza's guidelines. The adipocyte differentiation was carried out using the method recommended by Lonza Inc., except that the adipocyte differentiation of adipose-derived mesenchymal stem cells is induced by using troglitazone (TRO) instead of indomethacin. Specifically, the mesenchymal stem cells were differentiated into adipocytes by adding the medium for adipocyte differentiation (hereinafter referred to as IDX), which was prepared by mixing […] of insulin, […] of Dexamethasone (DEXA), 0.5 mM of isobutylmethylxanthine (IBMX) and […] of TRO, to the culture medium of mesenchymal stem cells, and then culturing it.\nIn order to determine the expression level of adiponectin, after the medium for adipocyte differentiation was collected on the 14th day of differentiation, the amount of adiponectin was quantified using the Adiponectin ELISA Kit (R & D systems, Cat. No. DY1065) (each data value was corrected by the control group). The specific measurement method using Adiponectin ELISA Kit was as follows.\nFirst, the capture antibody was reacted in a 96-well plate, washed with washing buffer solution, and then the material shown in Table 1 below was added and reacted at room temperature for 2 hours. Thereafter, while washing three times every time when going through each step, the detection antibody, the HRP enzyme, the substrate solution, and the stop solution were added in order and reacted for the time indicated in the protocol. After the final reaction, the absorbance was measured at a wavelength of 450 nm using a spectrophotometer.",
  "data": [
    {"smiles": "O=c1cc(CO)occ1O", "note": "[Kojic acid]", "values": [
      {"measurement": "expression level of adiponectin (in words)", "value": "not increased"}
    ]},
    {"smiles": "O=C(/C=C/c1ccc2c(c1)OCO2)OCc1cc(=O)c(O)co1", "note": "[Seletinoid G]", "values": [
      {"measurement": "Adiponectin (pg/ml, Avg ± S.D.)", "value": "1505 ± 109", "unit": "pg/mL"}
    ]},
    {"smiles": "CC1=C(/C=C/C(=O)OCc2cc(=O)c(O)co2)C(C)(C)CCC1", "note": "[compound of example, 3-(2,6,6-trimethyl-cyclohex-1-enyl)-propenoic acid 5-hydroxy-4-oxo-4H-pyran-2-ylmethyl ester]", "values": [
      {"measurement": "expression level of adiponectin (in words)", "value": "increases almost similarly to that with Glibenclamide"},
      {"measurement": "Adiponectin (pg/ml, Avg ± S.D.)", "value": "1804 ± 110", "unit": "pg/mL"}
    ]}
  ]
}
